Structures are written as SMILES.

Experiment [1] has as its system primary tumors. As to the kind of experiment: in vitro chemosensitivity assay of primary tumors (ATP-measurement, AUC of dose-response curve). It counts as cell-based. To be noted: 6 days of incubation; for response (chemosensitivity) of tumors of the basal subtype: basal molecular subtype (MLPH<2000); for response (chemosensitivity) of tumors of the luminal A subtype: luminal A molecular subtype (ESR1 >6000, PGR >160). The method, then:
In a second step for the identification of an optimal predictive gene signature in vitro chemosensitivity assays of primary tumors are performed to determine the response of a tumor towards a single chemotherapeutic agent. In said in vitro chemosensitivity assays the primary tumors were cultivated in different assays with increasing concentrations of the agents. After 6 days of incubation the vitality of the tumor cells were determined with an ATP-measurement. Hereby, the growing inhibition for the different agent concentrations could be determined and a dose-response curve could be provided. For each tumor the Area under the dose-response curve (AUC) could be determined for the different agents. The AUC is used to evaluate the response of a tumor towards a chemotherapeutic agent. The bigger the AUC, the more sensitive is the tumor towards the agent. The tumor samples were classified according to their sensitivity towards the agents into three classes (resistant, intermediate, sensitive) via the tertiles of the AUC arrangement.

The test system of experiment [2] is NCI 60 cell lines. As to the kind of experiment: NCI 60 cell line chemosensitivity (GI-50). The format is cell-based. As to conditions: AKR1C1 cut-off score 5000. On the procedure: In this study several tumor cell lines of different cancer types were tested for their sensitivity towards several chemotherapeutic agents. The GI-50 value (concentration, where half of the tumor cells are inhibited regarding growing) for Paclitaxel was used to test, whether AKR1C1 is appropriate for a prediction of a Paclitaxel sensitivity in cell lines. […] The defined cut-off score (5000) allowed a significant classification (p=0.0049) of the resistant and sensitive tumor cells of the NCI 60 cell lines (FIG. 14).
NCI 60 cell lines were classified with the marker gene AKR1C1 (cut-off score 5000). Onto the ordinate the concentration of Palitaxel is depicted, which is needed for the inhibition of half of the cells (GI-50). Altogether for Paclitaxel 54 GI-50 values for the cell lines were provided.

`CC(=O)O[C@H]1C(=O)[C@@]2(C)[C@H]([C@H](OC(=O)c3ccccc3)[C@]3(O)C[C@H](OC(=O)[C@H](O)[C@@H](NC(=O)c4ccccc4)c4ccccc4)C(C)=C1C3(C)C)[C@]1(OC(C)=O)CO[C@@H]1C[C@@H]2O` [Paclitaxel]: in experiment [1], the “response (chemosensitivity) of tumors of the basal subtype” value was “particularly sensitive” and the “response (chemosensitivity) of tumors of the luminal A subtype” value is on record as “resistant”. Further, the “sensitivity (GI-50) of cell lines with high expression of AKR1C1” value in experiment [2] is given as “mainly are resistant”.

With `COc1cccc2c1C(=O)c1c(O)c3c(c(O)c1C2=O)C[C@@](O)(C(=O)CO)C[C@@H]3O[C@H]1C[C@H](N)[C@@H](O)[C@H](C)O1` [Epirubicin], in experiment [1], the “response (chemosensitivity) of tumors of the basal subtype” value was “particularly sensitive” and the “response (chemosensitivity) of tumors of the luminal A subtype” value is “resistant”.

The record behind these values is patent publication US20110143946A1, “Method for predicting the response of a tumor in a patient suffering from or at risk of developing recurrent gynecologic cancer towards a chemotherapeutic agent” (SIEMENS HEALTHCARE DIAGNOSTICS INC., priority 2007, published 2011).
